Data: ChEMBL document CHEMBL5154823, “Amphiphilic cyclic peptide [W4KR5]-Antibiotics combinations as broad-spectrum antimicrobial agents” (Eur J Med Chem, 2022)
Where a SMILES comes first, the peptide text is derived from it.

How the values were obtained:
HepaRG = assay: Cytotoxicity against human HepaRG cells assessed as assessed as reduction in cell viability at 50 to 150 ug/ml incubated for 24 hrs by microplate reader analysis relative to control; type: toxicity, cell-based; conditions: at 50 to 150 µg/mL, dose 50-150 µg/ml
Pseudomonas aeruginosa [1] = assay: Antibacterial activity against Pseudomonas aeruginosa ATCC 27883 assessed as tobramycin MIC incubated for 24 hrs by microbroth dilution assay; type: functional
Klebsiella pneumoniae [2] = assay: Synergistic antibacterial activity against Klebsiella pneumoniae ATCC BAA 1705 assessed as fractional inhibitory concentration index incubated for 24 hrs in presence of polymyxin B by checkerboard assay; type: functional
Pseudomonas aeruginosa [3] = assay: Antibacterial activity against Pseudomonas aeruginosa ATCC 27883 assessed as polymyxin B MIC incubated for 24 hrs by microbroth dilution assay; type: functional
Klebsiella pneumoniae [4] = assay: Antibacterial activity against Klebsiella pneumoniae ATCC BAA 1705 assessed as ciprofloxacin MIC incubated for 24 hrs by microbroth dilution assay; type: functional
Staphylococcus aureus = assay: Antibacterial activity against Staphylococcus aureus ATCC BAA -1556 assessed as tobramycin MIC incubated for 24 hrs by microbroth dilution assay; type: functional
Cell membrane [5] = assay: Induction of membrane disruption in Staphylococcus aureus ATCC BAA -1556 assessed as increase in PI positive cells at MIC incubated for 2 hrs by Propidium iodide staining based FACS cytometry analysis relative to control
Cell membrane [6] = assay: Induction of membrane disruption in Staphylococcus aureus ATCC BAA -1556 assessed as increase in PI positive cells at 4 times of MIC incubated for 2 hrs by Propidium iodide staining based FACS cytometry analysis relative to control; type: subcellular
Pseudomonas aeruginosa [7] = assay: Antibacterial activity against Pseudomonas aeruginosa ATCC 27883 assessed as tetracycline MIC incubated for 24 hrs by microbroth dilution assay; type: functional

N=C(N)NCCC[C@@H]1NC(=O)[C@H](CCCNC(=N)N)NC(=O)[C@H](CCCNC(=N)N)NC(=O)[C@H](CCCNC(=N)N)NC(=O)[C@H](Cc2c[nH]c3ccccc23)NC(=O)[C@H](Cc2c[nH]c3ccccc23)NC(=O)[C@H](Cc2c[nH]c3ccccc23)NC(=O)[C@H](Cc2c[nH]c3ccccc23)NC(=O)[C@H](CCCCN)NC(=O)[C@H](CCCNC(=N)N)NC1=O (cyclo(KWWWWRRRRR))
Activity (HepaRG): 71%
MIC (Pseudomonas aeruginosa [1]): 0.125 µg/mL
fractional inhibitory concentration index (FICI) (Klebsiella pneumoniae [2]): 0.313
MIC (Pseudomonas aeruginosa [3]): 0.125 µg/mL
MIC (Klebsiella pneumoniae [4]): 16 µg/mL
MIC (Staphylococcus aureus): 0.0625 µg/mL
Activity (Cell membrane [5]): 48.2%
Activity (Cell membrane [6]): 81.3%
MIC (Pseudomonas aeruginosa [7]): 4 µg/mL
